Measurements from patent publication US20090068290A1, “BIFEPRUNOX DOSES FOR TREATING SCHIZOPHRENIA” (priority 2006, published 2009).

Assays:
Type in all cases: in vivo, human
[1] = system: adult subjects with schizophrenia; assay: CGI Improvement score, Clinical Study Three; design: CGI Improvement Very Much Worse, %: dose or concentration left out as unconfirmed; details: LOCF
Description: CLINICAL STUDY THREE: Table 29 below presents frequencies for the seven categories of CGI Improvement ratings by visit using LOCF for the ITT population. Statistical differences among treatment groups regarding the mean CGI Improvement score were evaluated using a CMH test stratified by pooled center applied to the frequencies of the seven CGI Improvement categories with modified ridit scores. […] The treatment comparison of the 30 mg bifeprunox group versus placebo group was not notable (p=0.162). No notable differences were observed between the placebo group and either of the two bifeprunox dose groups at any other time point during the study (Week 1 through Week 4).

[2] = system: adult subjects with schizophrenia; assay: BPRS psychosis cluster score, Clinical Study Three; details: for Change from Baseline in BPRS Psychosis Cluster Score, Mean (SD) / Change from Baseline in BPRS Psychosis Cluster Score, Median / Change from Baseline in BPRS Psychosis Cluster Score, Trt Effect (bifeprunox—placebo) / mean change (SD) from Baseline to Endpoint in BPRS psychosis cluster score: LOCF; for Change from Baseline in BPRS Psychosis Cluster Score, Mean (SD) / Change from Baseline in BPRS Psychosis Cluster Score, Median / Change from Baseline in BPRS Psychosis Cluster Score, Trt Effect (bifeprunox—placebo): ITT population; for BPRS psychosis cluster score, treatment effect (bifeprunox—placebo): Endpoint LOCF; for mean change (SD) from Baseline to Endpoint in BPRS psychosis cluster score: ITT
Description: (§1) SECONDARY OBJECTIVES To assess the efficacy of bifeprunox in treating schizophrenia using the Positive Symptom sub-scale score of the PANSS, the Negative Symptom sub-scale score of the PANSS, the General Psychopathology sub-scale of the PANSS, Brief Psychiatric Rating Scale (BPRS) total score derived from the PANSS, BPRS psychosis score derived from the PANSS, the Clinical Global Impression Severity of Illness score (CGI-S), the Clinical Global Impression Improvement score (CGI-I), CGI-I responder rate, PANSS responder rate based on the PANSS total score, Calgary Depression Scale for Schizophrenia (CDSS), and Subject Satisfaction rating.
(§2) There were four treatment arms in this study, approximately 144 subjects per arm. […] After completing the Single-Blind Placebo Lead-in Period of at least three days, bifeprunox-treated subjects were titrated from 0.25 mg up to 20 mg/day or 30 mg/day according to a standardized titration scheme over a seven- or eight-day period, respectively. When the assigned dose was reached, subjects were maintained at that dose for the remainder of the six week treatment period. […] Subjects were hospitalized (if not already inpatients) after eligibility for study entry was verified, starting from the Screening Visit until at least 10 days after Baseline. Subjects could be hospitalized longer than 10 days if considered medically necessary by the Investigator. Rating scale assessments for efficacy and abnormal movement disorders were done weekly except for Week 5. […] Subject satisfaction with study medication was assessed at Week 6.

[3] = system: adult subjects with schizophrenia; assay: BPRS total score, Clinical Study Three
Description: as §1, §2

[4] = Bifeprunox 20 mg, Week 6/Endpoint
[5] = Bifeprunox 30 mg, Week 6/Endpoint
[6] = Bifeprunox 20 mg, Week 1, LOCF, ITT population
[7] = Bifeprunox 20 mg, Week 2, LOCF, ITT population
[8] = Bifeprunox 20 mg, Week 3, LOCF, ITT population
[9] = Bifeprunox 20 mg, Week 4, LOCF, ITT population
[10] = Bifeprunox 20 mg, Week 6/Endpoint, LOCF, ITT population
[11] = Bifeprunox 30 mg, Week 1, LOCF, ITT population

O=c1[nH]c2cccc(N3CCN(Cc4cccc(-c5ccccc5)c4)CC3)c2o1 [Bifeprunox, 7-[4-([1,1′-biphenyl]-3-ylmethyl)-1-piperazinyl]-2(3H)-benzoxazolone]
CGI Improvement Minimally Improved, % ([1]; 30 mg, Week 2): (45%)
CGI Improvement Minimally Worse, % ([1]; 30 mg, Week 2): (9%)
CGI Improvement Much Improved, % ([1]; 30 mg, Week 2): (21%)
CGI Improvement Much Worse, % ([1]; 30 mg, Week 2): (4%)
CGI Improvement No Change, % ([1]; 30 mg, Week 2): (19%)
CGI Improvement Very Much Improved, % ([1]; 30 mg, Week 2): (2%)
CGI Improvement Minimally Improved, % ([1]; 30 mg, Week 4): (30%)
CGI Improvement Minimally Worse, % ([1]; 30 mg, Week 4): (11%)
CGI Improvement Much Improved, % ([1]; 30 mg, Week 4): (32%)
CGI Improvement Much Worse, % ([1]; 30 mg, Week 4): (6%)
CGI Improvement No Change, % ([1]; 30 mg, Week 4): (17%)
CGI Improvement Very Much Improved, % ([1]; 30 mg, Week 4): (5%)
CGI Improvement Minimally Improved, % ([1]; 30 mg, Week 6/Endpoint): (28%)
CGI Improvement Minimally Worse, % ([1]; 30 mg, Week 6/Endpoint): (13%)
CGI Improvement Much Improved, % ([1]; 30 mg, Week 6/Endpoint): (33%)
CGI Improvement Much Worse, % ([1]; 30 mg, Week 6/Endpoint): (7%)
CGI Improvement No Change, % ([1]; 30 mg, Week 6/Endpoint): (15%)
CGI Improvement Very Much Improved, % ([1]; 30 mg, Week 6/Endpoint): (5%)
CGI Improvement Minimally Improved, % ([1]; 40 mg, Week 2): (37%)
CGI Improvement Minimally Worse, % ([1]; 40 mg, Week 2): (7%)
CGI Improvement Very Much Improved, % ([1]; 40 mg, Week 2): (<1%.)
CGI Improvement Minimally Improved, % ([1]; 40 mg, Week 4): (29%)
CGI Improvement Minimally Worse, % ([1]; 40 mg, Week 4): (8%)
CGI Improvement Very Much Improved, % ([1]; 40 mg, Week 4): (3%)
CGI Improvement Minimally Improved, % ([1]; 40 mg, Week 6/Endpoint): (30%)
CGI Improvement Minimally Worse, % ([1]; 40 mg, Week 6/Endpoint): (8%)
CGI Improvement Very Much Improved, % ([1]; 40 mg, Week 6/Endpoint): (7%)
CGI Improvement Much Improved, % ([1]; Week 2): (19%)
CGI Improvement Much Worse, % ([1]; Week 2): (10%)
CGI Improvement No Change, % ([1]; Week 2): (22%)
CGI Improvement Very Much Worse, % ([1]; Week 2): (<1%)
CGI Improvement Much Improved, % ([1]; Week 4): (30%)
CGI Improvement Much Worse, % ([1]; Week 4): (11%)
CGI Improvement No Change, % ([1]; Week 4): (17%)
CGI Improvement Very Much Worse, % ([1]; Week 4): (1%)
CGI Improvement Much Improved, % ([1]; Week 6/Endpoint): (27%)
CGI Improvement Much Worse, % ([1]; Week 6/Endpoint): (11%)
CGI Improvement No Change, % ([1]; Week 6/Endpoint): (16%)
CGI Improvement Very Much Worse, % ([1]; Week 6/Endpoint): (1%)
Change from Baseline in BPRS Psychosis Cluster Score, Mean (SD) ([2]; Bifeprunox 20 mg, Week 1): −1.4 (2.3)
Change from Baseline in BPRS Psychosis Cluster Score, Median ([2]; Bifeprunox 20 mg, Week 1): −1
Change from Baseline in BPRS Psychosis Cluster Score, Mean (SD) ([2]; Bifeprunox 20 mg, Week 2): −2.1 (2.9)
Change from Baseline in BPRS Psychosis Cluster Score, Median ([2]; Bifeprunox 20 mg, Week 2): −2
Change from Baseline in BPRS Psychosis Cluster Score, Mean (SD) ([2]; Bifeprunox 20 mg, Week 3): −2.6 (3.4)
Change from Baseline in BPRS Psychosis Cluster Score, Median ([2]; Bifeprunox 20 mg, Week 3): −3
Change from Baseline in BPRS Psychosis Cluster Score, Median ([2]; Bifeprunox 20 mg, Week 4): −3
Change from Baseline in BPRS Psychosis Cluster Score, Mean (SD) [2, 4]: −3.1 (3.9)
Change from Baseline in BPRS Psychosis Cluster Score, Median [2, 4]: −3
Change from Baseline in BPRS Psychosis Cluster Score, Trt Effect (bifeprunox—placebo) [2, 4]: −0.6
Change from Baseline in BPRS Psychosis Cluster Score, Mean (SD) ([2]; Bifeprunox 30 mg, Week 1): −1.7 (2.5)
Change from Baseline in BPRS Psychosis Cluster Score, Median ([2]; Bifeprunox 30 mg, Week 1): −2
Change from Baseline in BPRS Psychosis Cluster Score, Mean (SD) ([2]; Bifeprunox 30 mg, Week 2): −2.3 (3.3)
Change from Baseline in BPRS Psychosis Cluster Score, Median ([2]; Bifeprunox 30 mg, Week 2): −2
Change from Baseline in BPRS Psychosis Cluster Score, Mean (SD) ([2]; Bifeprunox 30 mg, Week 3): −2.7 (3.8)
Change from Baseline in BPRS Psychosis Cluster Score, Median ([2]; Bifeprunox 30 mg, Week 3): −3
Change from Baseline in BPRS Psychosis Cluster Score, Mean (SD) ([2]; Bifeprunox 30 mg, Week 4): −3.0 (4.0)
Change from Baseline in BPRS Psychosis Cluster Score, Median ([2]; Bifeprunox 30 mg, Week 4): −3
Change from Baseline in BPRS Psychosis Cluster Score, Mean (SD) [2, 5]: −3.2 (4.4)
Change from Baseline in BPRS Psychosis Cluster Score, Median [2, 5]: −3
Change from Baseline in BPRS Psychosis Cluster Score, Trt Effect (bifeprunox—placebo) [2, 5]: −0.5
BPRS psychosis cluster score, treatment effect (bifeprunox—placebo) ([2]; bifeprunox 20 mg): −0.6
mean change (SD) from Baseline to Endpoint in BPRS psychosis cluster score ([2]; bifeprunox 20 mg): −3.1 (3-9)
BPRS psychosis cluster score, treatment effect (bifeprunox—placebo) ([2]; bifeprunox 30 mg): −0.5
mean change (SD) from Baseline to Endpoint in BPRS psychosis cluster score ([2]; bifeprunox 30 mg): −3.2 (4.4)
BPRS total score, treatment effect (bifeprunox—placebo) ([3]; 'the mg bifeprunox group' (dose not given), Endpoint LOCF): −2.1
mean change (SD) from Baseline to Endpoint in BPRS total score ([3]; 'the mg bifeprunox group' (dose not given), LOCF, ITT): −7.9 (12.0)
Change from Baseline in BPRS Total Score, Mean (SD) [3, 6]: −3.2 (7.3)
Change from Baseline in BPRS Total Score, Median [3, 6]: −3
Change from Baseline in BPRS Total Score, Mean (SD) [3, 7]: −6.0 (9.1)
Change from Baseline in BPRS Total Score, Median [3, 7]: −7
Change from Baseline in BPRS Total Score, Mean (SD) [3, 8]: −7.5 (10.3)
Change from Baseline in BPRS Total Score, Median [3, 8]: −8
Change from Baseline in BPRS Total Score, Mean (SD) [3, 9]: −8.1 (11.3)
Change from Baseline in BPRS Total Score, Median [3, 9]: −9
Change from Baseline in BPRS Total Score, Mean (SD) [3, 10]: −8.5 (11.9)
Change from Baseline in BPRS Total Score, Median [3, 10]: −8
Change from Baseline in BPRS Total Score, Trt Effect (bifeprunox—placebo) [3, 10]: −2.1
Change from Baseline in BPRS Total Score, Mean (SD) [3, 11]: −3.6 (7.3)
Change from Baseline in BPRS Total Score, Median [3, 11]: −4
Change from Baseline in BPRS Total Score, Mean (SD) ([3]; Bifeprunox 30 mg, Week 2, LOCF, ITT population): −5.2 (9.3)
